Test results as given in paper PMC7020476, “New Insights into the Type II Toxins from the Sea Anemone Heteractis crispa” (Toxins, 2020).
“Also recorded” adds a separate entry of the source. Where two headings read alike, the source gives them in different places. Bridges are numbered along the chain shown (N, C = ends). Roman numbers before positions name the chains, in order. Where no end group is shown, it is not given here.

Columns and labels:
mice [1] = settings: cited from earlier work
Excerpt: The only difference observed within our electrophysiological experiments that may underlie this phenomenon is a different activity of both toxins on NaV1.2 and NaV1.3 subtypes (Figure 5, Table 2). Even though tetrodotoxin (TTX)-sensitive brain-type sodium channel isoforms NaV1.1–NaV1.3 and NaV1.6 are the main channels e ...

BgNaV1 = BgNaV1 (Blattella germanica, UniProt O01306); assay: Two-electrode voltage-clamp of BgNaV1 expressed in Xenopus laevis oocytes; type: cell-based, insect; settings: for EC50: amplitude of toxin-induced effect at 30 ms (I30ms), Hill fit, Xenopus oocytes, means ± sem, n ≥ 5, read-out: half-maximal effective concentration (EC50), BgNaV1
Excerpt: (§1) For the expression of NaV channels (hNaV1.1, rNaV1.2, rNaV1.3, rNaV1.4, hNaV1.5, mNaV1.6, rNaV1.8, the invertebrate channels BgNaV1.1, VdNaV1, and the auxiliary subunits rβ1, hβ1, and TipE) in Xenopus oocytes, the linearized plasmids were transcribed using the T7 or SP6 mMessage-mMachine Transcription Kit (Thermo Fisher Scientific, Waltham, MA, USA). The harvesting of stage V–VI oocytes from anesthetized female X. laevis frogs was previously described with a protocol adjustment in which the frogs were anesthetized by placement in 0.1% tricaine (amino benzoic acid ethyl ester; Millipore Sigma, Burlington, MA, USA) solution. Oocytes were injected with 50 nL of cRNA at a concentration of 1 ng/nL using a microinjector (Drummond Scientific Company, Broomall, PA, USA). The oocytes were incubated in a solution containing (mM) the following: NaCl, 96; KCl, 2; CaCl2, 1.8; MgCl2, 2; and HEPES, 5 (pH 7.4). This solution was supplemented with 50 mg/L gentamicin sulfate.
(§2) Two-electrode voltage-clamp recordings were performed at room temperature (18–22 °C) using a GeneClamp 500 amplifier (Molecular Devices, San Jose, CA, USA) controlled by a pClamp data acquisition system (Axon Instruments, Union City, CA, USA). Whole-cell currents from oocytes were recorded 1–4 d after mRNA injection. Bath solution composition was (mM) as follows: NaCl, 96; KCl, 2; CaCl2, 1.8; MgCl2, 2; and HEPES, 5 (pH 7.4). Voltage and current electrodes were filled with 3 M KCl. The resistances of both electrodes were kept between 0.8 and 1.5 MΩ. The elicited currents were filtered at 1 kHz and sampled at 20 kHz by using a 4-pole low-pass Bessel filter. Leak subtraction was performed using a -P/4 protocol.
(§3) For the electrophysiological analysis of toxins, a number of protocols were applied from a holding potential of −90 mV with a start-to-start frequency of 0.2 Hz. Na^+ current traces were evoked by 100-ms depolarizations to Vmax (the voltage corresponding to maximal Na^+ current in control conditions). The current–voltage relationships were determined by 50-ms step depolarizations between −90 and 70 mV, using 5 mV increments. The Na^+ conductance (gNa) was calculated from the currents according to Ohm’s law: gNa = INa/(V − Vrev), where INa represents the Na^+ current peak amplitude at a given test potential V, and Vrev is the reversal potential. The values of gNa were plotted as a function of voltage and fitted using the Boltzmann function: gNa/gmax = [1 + (exp(Vg − V)/k)] −1, where gmax represents maximal gNa, Vg is the voltage corresponding to half-maximal conductance, and k is the slope factor. Toxin–induced effects on the steady–state inactivation were investigated by using a standard two-step protocol. […] I30ms/Ipeak was measured at the same test voltage after addition of the toxin. […]

mice [2] = assay: Toxicity in mice; type: in vivo, adult male CD-1 mice; settings: intraperitoneal, six animals per sample, 24 hours
Protocol: The care and use of animals were performed in an agreement with the requirements of local and international legislation as well as of the Directive 2010/63/EU for animal experiments.
Adult male CD-1 mice weighing 20–22 g were kept at room temperature with a 12-h light/dark cycle and with ad libitum access to food and water. Each animal was used only once and was euthanized in the CO2 chamber immediately after completion of the experiment. Animal procedures were approved by the Animal Care and Use Committee of the PIBOC FEB RAS.
The peptides (0.15–300 μg) were dissolved in 100 μL of sterile saline (0.9% NaCl) and injected intraperitoneally. Six animals were used per sample. To assess peptide toxicity, the maximum non-toxic dose was determined as an amount (mg) of the tested peptide per kg of the mouse weight, at which there was no observed toxic or adverse effect within 24 hours.

rNaV1.2 = biological target: T1, rNaV1.2 (Rattus norvegicus, UniProt P04775); assay: Two-electrode voltage-clamp of NaV1.2 expressed in Xenopus laevis oocytes; type: cell-based; settings: for EC50: read-out: half-maximal effective concentration (EC50), NaV1.2
T1 construct: expressed in transfected cells; host or cells: Xenopus laevis oocytes injected with cRNA
Excerpt: as §1, §2
as §3, with “protocol. In this protocol, 100 ms conditioning 5 mV step prepulses ranging from −90 to 70 mV were followed by a 50-ms test pulse to −30 or −10 mV. Data were normalized to the maximal Na^+ current amplitude, plotted against prepulse potential, and fitted by using the Boltzmann function: INa/Imax = {(1 − C)/(1 + exp[(V − Vh)/k)]} + C, where Imax is the maximal INa, Vh is the voltage corresponding to half-maximal inactivation, V is the test voltage, k is the slope factor, and C is a constant representing a non-inactivating persistent fraction (close to 0 in control).” for “protocol.”

mNaV1.6 = biological target: T2, mNaV1.6 (Mus musculus, UniProt Q9WTU3); assay: Two-electrode voltage-clamp of NaV1.6 expressed in Xenopus laevis oocytes; type: cell-based; settings: for EC50: amplitude of toxin-induced effect at 30 ms (I30ms), Hill fit, Xenopus oocytes, means ± sem, n ≥ 5, read-out: half-maximal effective concentration (EC50), NaV1.6
T2 construct: expressed in transfected cells; host or cells: Xenopus laevis oocytes injected with cRNA
Excerpt: as §1, §2, §3

[3] = test system: NaV channels (NaV1.1–NaV1.6, NaV1.8, BgNaV1, VdNaV1); assay: Electrophysiological screening on nine NaV subtypes (overall statements); type: cell-based; settings: for modulation of NaV channels (in words): 10 μM toxin, Xenopus oocytes; for phyla selectivity (in words): mammalian vs. insect/arachnid, 10 μM
Excerpt: as §1, §2, §3

rNaV1.3 = assay: Two-electrode voltage-clamp of NaV1.3 expressed in Xenopus laevis oocytes; type: cell-based, rat; settings: 10 μM toxin
Excerpt: as §1, with “Oocytes were injected with 50 nL of cRNA at a concentration of 1 ng/nL using a microinjector (Drummond Scientific Company, Broomall, PA, USA). The oocytes were incubated in a solution containing (mM) the following: NaCl, 96; KCl, 2; CaCl2, 1.8; MgCl2, 2; and HEPES, 5 (pH 7.4). This solution was supplemented with 50 mg/L gentamicin sulfate.” left out
Two-electrode voltage-clamp recordings were performed at room temperature (18–22 °C) using a GeneClamp 500 amplifier (Molecular Devices, San Jose, CA, USA) controlled by a pClamp data acquisition system (Axon Instruments, Union City, CA, USA). Whole-cell currents from oocytes were recorded 1–4 d after mRNA injection. […]
For the electrophysiological analysis of toxins, a number of protocols were applied from a holding potential of −90 mV with a start-to-start frequency of 0.2 Hz. […] The current–voltage relationships were determined by 50-ms step depolarizations between −90 and 70 mV, using 5 mV increments. […] I30ms/Ipeak was measured at the same test voltage after addition of the toxin. […]

[4] = Secondary structure content by CD spectroscopy; type: physicochemical; settings: water, 20 °C; for Unordered / α-Helices αD / α-Helices αR / α-Helices αtot: CONTIN; for α-Helices αD: distorted; for α-Helices αR: regular; for α-Helices αtot: sum
Protocol: CD spectra were measured in the range from 320 to 190 nm with a Chirascan-plus spectropolarimeter (Applied Photophysics, Leatherhead, UK). The instrument was calibrated with 10-camphorsulfonic acid ammonium salt, and a ratio of 2:1 was found between the positive CD band at 290 nm and the negative CD band at 192 nm. The measurements were carried out in bidistilled water at 20 °C using 0.1- and 1-cm path length cells in amide and aromatic regions, respectively. In the amide region (190–240 nm) of the CD spectrum, molar ellipticity [θ]λ (deg cm^2 dmol^−1) was calculated as [θ]λ = θobs × MRW/10 × C × L, where θobs is the observed ellipticity in degrees, MRW is the mean amino acid residue weight of 110 Da, L is the path length (cm), and C is the protein concentration (g/mL). In the aromatic region (240–320 nm) of the CD spectrum, results were expressed as molar ellipticity (the average molecular masses of RpII, RTX-III, and RTX-VI are 5378, 5287, and 5240 Da, respectively). The secondary structure contents were determined according to the method of Provencher and Glöckner, using their CONTIN program.

[5] = amplitude of toxin-induced effect at 30 ms (I30ms), Hill fit, Xenopus oocytes, means ± sem, n ≥ 5

BgNaV1, sequence (O01306 1-2031): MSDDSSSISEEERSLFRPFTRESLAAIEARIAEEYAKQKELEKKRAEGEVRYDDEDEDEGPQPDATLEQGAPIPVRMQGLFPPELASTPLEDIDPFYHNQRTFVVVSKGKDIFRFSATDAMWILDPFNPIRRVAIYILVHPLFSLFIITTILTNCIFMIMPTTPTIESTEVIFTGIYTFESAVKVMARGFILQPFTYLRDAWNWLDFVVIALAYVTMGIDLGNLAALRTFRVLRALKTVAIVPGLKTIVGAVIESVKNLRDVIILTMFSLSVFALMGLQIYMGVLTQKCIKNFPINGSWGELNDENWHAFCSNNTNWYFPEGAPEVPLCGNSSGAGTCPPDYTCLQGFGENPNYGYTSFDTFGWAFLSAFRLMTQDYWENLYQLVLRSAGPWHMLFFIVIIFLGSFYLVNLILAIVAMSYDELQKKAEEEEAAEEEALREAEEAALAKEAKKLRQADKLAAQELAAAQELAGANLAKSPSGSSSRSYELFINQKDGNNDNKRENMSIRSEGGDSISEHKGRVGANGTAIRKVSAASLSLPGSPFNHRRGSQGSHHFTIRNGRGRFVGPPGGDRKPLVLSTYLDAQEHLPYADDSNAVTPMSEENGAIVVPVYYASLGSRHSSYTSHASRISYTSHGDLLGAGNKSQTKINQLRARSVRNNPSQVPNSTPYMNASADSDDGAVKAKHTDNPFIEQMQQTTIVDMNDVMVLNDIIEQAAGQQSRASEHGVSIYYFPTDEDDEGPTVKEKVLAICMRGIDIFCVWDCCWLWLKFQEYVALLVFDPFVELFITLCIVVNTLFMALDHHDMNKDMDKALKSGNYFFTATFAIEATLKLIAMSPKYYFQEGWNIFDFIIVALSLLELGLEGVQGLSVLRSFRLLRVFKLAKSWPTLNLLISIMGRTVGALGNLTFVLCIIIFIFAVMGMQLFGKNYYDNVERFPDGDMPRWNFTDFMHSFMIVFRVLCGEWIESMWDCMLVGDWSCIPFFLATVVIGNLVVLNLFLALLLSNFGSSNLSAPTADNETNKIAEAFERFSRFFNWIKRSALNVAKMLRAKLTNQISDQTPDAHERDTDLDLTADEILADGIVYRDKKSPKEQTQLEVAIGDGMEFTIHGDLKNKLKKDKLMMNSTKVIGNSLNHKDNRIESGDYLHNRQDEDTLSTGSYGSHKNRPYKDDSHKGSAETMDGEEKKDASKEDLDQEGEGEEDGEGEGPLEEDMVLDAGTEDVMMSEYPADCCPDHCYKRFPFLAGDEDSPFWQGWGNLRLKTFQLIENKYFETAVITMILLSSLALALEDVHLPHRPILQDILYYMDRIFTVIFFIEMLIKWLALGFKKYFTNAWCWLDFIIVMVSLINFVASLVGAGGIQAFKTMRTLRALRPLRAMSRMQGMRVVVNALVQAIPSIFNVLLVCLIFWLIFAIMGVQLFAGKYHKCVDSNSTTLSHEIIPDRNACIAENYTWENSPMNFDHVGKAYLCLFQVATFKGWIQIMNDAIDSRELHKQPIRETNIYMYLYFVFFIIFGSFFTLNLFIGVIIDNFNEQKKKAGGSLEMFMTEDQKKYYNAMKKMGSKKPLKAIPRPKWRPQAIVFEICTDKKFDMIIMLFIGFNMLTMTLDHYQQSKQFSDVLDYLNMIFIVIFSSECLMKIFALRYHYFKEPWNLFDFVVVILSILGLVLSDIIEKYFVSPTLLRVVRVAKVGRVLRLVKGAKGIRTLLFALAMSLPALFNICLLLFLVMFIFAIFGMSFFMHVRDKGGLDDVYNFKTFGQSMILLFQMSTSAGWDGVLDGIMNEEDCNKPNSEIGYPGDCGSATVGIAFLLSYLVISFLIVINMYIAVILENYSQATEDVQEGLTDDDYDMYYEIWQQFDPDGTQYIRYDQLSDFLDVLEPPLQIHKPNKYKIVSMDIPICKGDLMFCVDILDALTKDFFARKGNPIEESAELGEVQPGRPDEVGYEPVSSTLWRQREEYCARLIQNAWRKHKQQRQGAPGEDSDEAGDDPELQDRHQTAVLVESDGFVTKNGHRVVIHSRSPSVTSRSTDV
T2 sequence (Q9WTU3 whole entry): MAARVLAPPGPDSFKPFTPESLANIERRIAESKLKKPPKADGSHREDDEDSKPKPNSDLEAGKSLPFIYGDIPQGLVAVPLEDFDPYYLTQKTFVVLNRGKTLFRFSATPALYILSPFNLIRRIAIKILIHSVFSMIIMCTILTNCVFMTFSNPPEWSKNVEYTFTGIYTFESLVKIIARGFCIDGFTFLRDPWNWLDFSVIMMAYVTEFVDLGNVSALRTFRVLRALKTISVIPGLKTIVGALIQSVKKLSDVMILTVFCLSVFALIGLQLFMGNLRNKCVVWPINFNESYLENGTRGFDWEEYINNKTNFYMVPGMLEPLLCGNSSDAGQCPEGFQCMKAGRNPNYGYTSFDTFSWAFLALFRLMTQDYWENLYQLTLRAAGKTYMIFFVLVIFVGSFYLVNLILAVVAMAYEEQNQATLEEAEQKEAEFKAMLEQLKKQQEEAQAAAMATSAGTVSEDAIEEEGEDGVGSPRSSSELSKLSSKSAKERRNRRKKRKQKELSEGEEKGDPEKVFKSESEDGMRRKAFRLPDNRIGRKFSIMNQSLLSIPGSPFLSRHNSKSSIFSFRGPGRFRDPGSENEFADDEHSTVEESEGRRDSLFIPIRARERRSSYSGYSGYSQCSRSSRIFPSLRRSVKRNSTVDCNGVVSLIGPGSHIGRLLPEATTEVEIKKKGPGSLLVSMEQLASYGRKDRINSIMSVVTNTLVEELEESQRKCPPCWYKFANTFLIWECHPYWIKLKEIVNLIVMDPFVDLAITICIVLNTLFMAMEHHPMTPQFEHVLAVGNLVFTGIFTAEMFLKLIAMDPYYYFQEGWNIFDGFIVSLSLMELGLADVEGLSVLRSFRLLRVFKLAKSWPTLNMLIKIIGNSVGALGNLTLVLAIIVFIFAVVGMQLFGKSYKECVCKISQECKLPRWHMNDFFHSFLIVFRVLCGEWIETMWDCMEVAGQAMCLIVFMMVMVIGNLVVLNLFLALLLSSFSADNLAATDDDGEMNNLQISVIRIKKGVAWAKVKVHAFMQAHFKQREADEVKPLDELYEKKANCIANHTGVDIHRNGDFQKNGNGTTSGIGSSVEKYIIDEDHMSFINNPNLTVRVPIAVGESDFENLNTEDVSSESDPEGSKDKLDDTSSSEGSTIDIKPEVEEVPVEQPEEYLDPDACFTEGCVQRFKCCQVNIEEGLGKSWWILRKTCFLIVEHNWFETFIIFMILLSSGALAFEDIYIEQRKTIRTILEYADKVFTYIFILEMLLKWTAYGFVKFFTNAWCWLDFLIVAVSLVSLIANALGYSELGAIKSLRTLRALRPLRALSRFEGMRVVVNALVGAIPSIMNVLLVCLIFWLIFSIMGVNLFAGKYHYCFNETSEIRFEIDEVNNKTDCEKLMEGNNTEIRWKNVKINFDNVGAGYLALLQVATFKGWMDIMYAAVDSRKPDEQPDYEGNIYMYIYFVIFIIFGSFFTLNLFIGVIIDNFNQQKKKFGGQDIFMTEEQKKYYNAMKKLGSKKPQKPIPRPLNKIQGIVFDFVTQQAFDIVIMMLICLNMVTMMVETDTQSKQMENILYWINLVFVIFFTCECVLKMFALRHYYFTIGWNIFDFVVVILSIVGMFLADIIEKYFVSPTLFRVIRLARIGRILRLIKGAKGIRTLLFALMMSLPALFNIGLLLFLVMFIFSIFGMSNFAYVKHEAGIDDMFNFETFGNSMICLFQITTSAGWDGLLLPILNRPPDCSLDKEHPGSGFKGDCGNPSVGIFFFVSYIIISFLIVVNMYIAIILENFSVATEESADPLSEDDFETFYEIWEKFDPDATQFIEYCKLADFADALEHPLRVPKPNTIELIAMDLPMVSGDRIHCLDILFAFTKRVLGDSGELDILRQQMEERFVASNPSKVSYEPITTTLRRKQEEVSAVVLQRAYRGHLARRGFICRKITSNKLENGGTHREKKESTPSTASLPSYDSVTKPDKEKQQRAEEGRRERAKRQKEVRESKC

ASCKCDDDGPDVRSATFTGTVDFWNCNEGWEKCTAVYTPVASCCRKKK-NH2 (disulfide 3-43, 5-33, 26-44) [δ-SHTX-Hcr1f]
LD50 (mice [1]; ref [8]): 4.2 mg/kg
EC50 (BgNaV1): 226 ± 12.3 nM
toxicity in mice (in words) (mice [2]; CD-1 mice): consistent with the previously reported data for RpII
EC50 (rNaV1.2; [5]): 79.5 ± 4.3 nM
EC50 (mNaV1.6): 183 ± 8.2 nM

I: TAPLTGYVDLGYCNEGWEKCASYYSPIAECCRKKK-NH2 / II: GNCKCDDEGPYV-OH (disulfide I:13-I:31, I:20-II:5, I:30-II:3) [RTX-VI]
EC50 (BgNaV1): 761 ± 25.6 nM
relative potency on BgNaV1 (in words) (BgNaV1; compared with RTX-III): more potent inhibitor of both NaV1.6 and BgNaV1 channels than RTX-III
modulation of NaV channels (in words) [3]: modulate insect, arachnid (BgNaV1, VdNaV1), and mammalian CNS NaV channels (NaV1.1–NaV1.3, NaV1.6) but not skeletal muscle (NaV1.4), cardiac (NaV1.5), or PNS (NaV1.8) channels; also recorded: did not affect currents of skeletal muscle NaV1.4, cardiac NaV1.5, and PNS NaV1.8 channels
phyla selectivity (in words) [3]: not to be phyla-selective; also recorded: non-phyla-selective
LD50 (mice [2]; mice): > 10 mg/kg
effect on NaV1.3 current (in words) (rNaV1.3): abolished its effect on the NaV1.3 current
effect on NaV1.2 current (in words) (rNaV1.2; Xenopus oocytes): modulated another subtype of the CNS channels, NaV1.2; also recorded: enhanced current through NaV1.2
EC50 (rNaV1.2; [5]): 121 ± 19.3 nM
relative activity on NaV1.2 (in words) (rNaV1.2; compared to δ-SHTX-Hcr1f (Figure 6, Table 3)): lower activity on the NaV1.2 subtype compared to δ-SHTX-Hcr1f
EC50 (mNaV1.6): 282 ± 7 nM
relative potency on NaV1.6 (in words) (mNaV1.6; compared with RTX-III): more potent inhibitor of both NaV1.6 and BgNaV1 channels than RTX-III
α-helices (in words) [4]: practically absent
Unordered [4]: 38.3 percentage
α-Helices αD [4]: 0.3 percentage
α-Helices αR [4]: 0.0 percentage
α-Helices αtot [4]: 0.3 percentage

H-GNCKCDDEGPYVRTAPLTGYVDLGYCNEGWEKCASYYSPIAECCRKKK-NH2 (disulfide 3-43, 5-33, 26-44) [RTX-III]
LD50 (mice [1]; ref [10]): 0.0025 mg/kg
EC50 (BgNaV1): 978 ± 62.3 nM
modulation of NaV channels (in words) [3]: modulate insect, arachnid (BgNaV1, VdNaV1), and mammalian CNS NaV channels (NaV1.1–NaV1.3, NaV1.6) but not skeletal muscle (NaV1.4), cardiac (NaV1.5), or PNS (NaV1.8) channels; also recorded: did not affect currents of skeletal muscle NaV1.4, cardiac NaV1.5, and PNS NaV1.8 channels
phyla selectivity (in words) [3]: not to be phyla-selective; also recorded: non-phyla-selective
effect on NaV1.3 current (in words) (rNaV1.3): exhibited substantial activating effects on NaV1.3; also recorded: acted similarly on NaV1.3
half-maximal effective concentration (EC50), NaV1.2 (rNaV1.2; [5]): Not active
EC50 (mNaV1.6): 382 ± 5.8 nM
α-helices (in words) [4]: practically absent
Unordered [4]: 40.1 percentage
α-Helices αD [4]: 0.4 percentage
α-Helices αR [4]: 0.1 percentage
α-Helices αtot [4]: 0.5 percentage
